What all share (assay): relative viability (nuclei count vs DMSO), 5 days (fraction); higher = more cells survive
Compound in the assay “Crizotinib + Luminespib”: C[C@@H](Oc1cc(-c2cnn(C3CCNCC3)c2)cnc1N)c1c(Cl)ccc(F)c1Cl [Crizotinib] + CCNC(=O)c1noc(-c2cc(C(C)C)c(O)cc2O)c1-c1ccc(CN2CCOCC2)cc1 [Luminespib] (partner 0.01 µM)
The method, boiled down:
(§1)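 A single step with final 0.05% Triton X-100, 1% formaldehyde and 1 ug/ml Hoechst fixed the cells and stained nuclei 5 days after treatment. Lung cancer cell lines in 1536-well plates had been treated by pin tool the day after seeding with one drug alone or a fixed anchor-drug dose plus five library-drug doses (not always all listed) in √10 steps, and nuclei were counted on 4× images. Relative viability is the ratio of nuclei in treated wells to nuclei in vehicle wells, taken as the median of duplicate plates.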

Compound in the assay “Crizotinib + Linsitinib”: C[C@@H](Oc1cc(-c2cnn(C3CCNCC3)c2)cnc1N)c1c(Cl)ccc(F)c1Cl [Crizotinib] + C[C@]1(O)C[C@@H](c2nc(-c3ccc4ccc(-c5ccccc5)nc4c3)c3c(N)nccn32)C1 [Linsitinib] (partner 1 µM)
The method, boiled down: as §1

Compound in another assay: CC(C)C[C@H](NC(=O)[C@H](CCc1ccccc1)NC(=O)CN1CCOCC1)C(=O)N[C@@H](Cc1ccccc1)C(=O)N[C@@H](CC(C)C)C(=O)[C@@]1(C)CO1 [Carfilzomib]
The method, boiled down: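 Hoechst staining, done together with fixation and permeabilisation, marked nuclei for 4× imaging and MetaXpress counting. This followed 5 days without medium change after lung cancer cell lines, kept overnight at 37 °C in 1536-well plates, were pinned with five library-drug doses (not always all listed) spaced by √10 on vehicle-anchored plates. Viability is the ratio of treated-well to vehicle-well nuclei, expressed as a median across plates. Plates passed only at control CV below 25% with at least one doubling.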

Consider COR-L 105, for which the relative viability with Crizotinib + Luminespib (first compound 0.01 µM) was 0.686; with Crizotinib + Luminespib (first compound 0.03162 µM) it was 0.859; with Crizotinib + Luminespib (first compound 0.1 µM) it was 0.712; with Crizotinib + Luminespib (first compound 0.3162 µM) it was 0.804; with Crizotinib + Luminespib (first compound 1 µM), 0.769; with Crizotinib + Linsitinib (first compound 0.01 µM) it was 1.14. The relative viability in the assay with Crizotinib + Linsitinib (first compound 0.03162 µM) came to 1; in the assay with Crizotinib + Linsitinib (first compound 0.1 µM), 0.929; with Crizotinib + Linsitinib (first compound 0.3162 µM), 0.956; in the assay with Crizotinib + Linsitinib (first compound 1 µM) it was 0.972; in the assay with Carfilzomib (0.001 µM) it was 1.06; with Carfilzomib (0.003162 µM) it was 0.931. Further, the results for the relative viability with Carfilzomib (0.01 µM), with Carfilzomib (0.03162 µM) and with Carfilzomib (0.1 µM) were 0.962, 0.318 and 0.26, respectively.
As for NCI-H596, the relative viability worked out at 0.86 in the assay with Crizotinib + Luminespib (first compound 0.01 µM); 1.18 in the assay with Crizotinib + Luminespib (first compound 0.03162 µM); 0.942 with Crizotinib + Luminespib (first compound 0.1 µM); 1.18 with Crizotinib + Luminespib (first compound 0.3162 µM); 1.01 in the assay with Crizotinib + Luminespib (first compound 1 µM); 0.971 with Crizotinib + Linsitinib (first compound 0.01 µM). Moreover, the relative viability with Crizotinib + Linsitinib (first compound 0.03162 µM) stood at 1.16; with Crizotinib + Linsitinib (first compound 0.1 µM) it was 1.07; with Crizotinib + Linsitinib (first compound 0.3162 µM), 1.19; with Crizotinib + Linsitinib (first compound 1 µM), 1.15; with Carfilzomib (0.001 µM), 0.951; with Carfilzomib (0.003162 µM) it was 0.949. The figures for the relative viability with Carfilzomib (0.01 µM), with Carfilzomib (0.03162 µM) and with Carfilzomib (0.1 µM) were 0.95, 0.697 and 0.222, respectively.
With NCI-H2347, the relative viability with Crizotinib + Luminespib (first compound 0.01 µM) was determined as 0.212; with Crizotinib + Luminespib (first compound 0.03162 µM) it was 0.458; with Crizotinib + Luminespib (first compound 0.1 µM), 0.482; with Crizotinib + Luminespib (first compound 0.3162 µM), 0.681; with Crizotinib + Luminespib (first compound 1 µM) it was 0.404; with Crizotinib + Linsitinib (first compound 0.01 µM) it was 0.913. The relative viability with Crizotinib + Linsitinib (first compound 0.1 µM) was found to be 1.03; in the assay with Crizotinib + Linsitinib (first compound 1 µM), 0.993; with Carfilzomib (0.001 µM), 0.971; with Carfilzomib (0.003162 µM), 1.08; with Carfilzomib (0.01 µM), 1.03; with Carfilzomib (0.03162 µM), 0.511. Also, in the assay with Carfilzomib (0.1 µM), the relative viability was 0.393.
As to COR-L23, the relative viability came to 0.655 with Crizotinib + Luminespib (first compound 0.01 µM); 0.665 in the assay with Crizotinib + Luminespib (first compound 0.03162 µM); 0.656 in the assay with Crizotinib + Luminespib (first compound 0.1 µM); 0.775 with Crizotinib + Luminespib (first compound 0.3162 µM); 0.687 with Crizotinib + Luminespib (first compound 1 µM); 0.876 in the assay with Crizotinib + Linsitinib (first compound 0.03162 µM). The relative viability was determined as 0.844 in the assay with Crizotinib + Linsitinib (first compound 0.1 µM); 0.802 with Crizotinib + Linsitinib (first compound 0.3162 µM); 0.925 with Crizotinib + Linsitinib (first compound 1 µM); 1.06 with Carfilzomib (0.001 µM); 1.13 with Carfilzomib (0.003162 µM); 0.846 in the assay with Carfilzomib (0.01 µM). For the same cell line, the results for the relative viability with Carfilzomib (0.03162 µM) and in the assay with Carfilzomib (0.1 µM) were 0.0978 and 0.0691, respectively.
As for NCI-H322M, the relative viability was 0.721 with Crizotinib + Luminespib (first compound 0.01 µM); 0.994 with Crizotinib + Luminespib (first compound 0.03162 µM); 0.725 with Crizotinib + Luminespib (first compound 0.1 µM); 1 with Crizotinib + Luminespib (first compound 0.3162 µM); 0.964 with Crizotinib + Luminespib (first compound 1 µM); 0.811 with Crizotinib + Linsitinib (first compound 0.01 µM). The relative viability with Crizotinib + Linsitinib (first compound 0.03162 µM) was 0.954; in the assay with Crizotinib + Linsitinib (first compound 0.1 µM) it was 1; with Crizotinib + Linsitinib (first compound 0.3162 µM) it was 0.96; in the assay with Crizotinib + Linsitinib (first compound 1 µM), 0.903; with Carfilzomib (0.001 µM) it was 0.911; in the assay with Carfilzomib (0.003162 µM), 1.07. The relative viability with Carfilzomib (0.01 µM) was determined as 1.04; with Carfilzomib (0.03162 µM) it was 0.961; in the assay with Carfilzomib (0.1 µM), 0.376.
For the cell line NCI-H2085, the relative viability was determined as 0.551 with Crizotinib + Luminespib (first compound 0.01 µM); 0.394 with Crizotinib + Luminespib (first compound 0.03162 µM); 0.431 with Crizotinib + Luminespib (first compound 0.1 µM); 0.428 in the assay with Crizotinib + Luminespib (first compound 1 µM); 0.8 in the assay with Crizotinib + Linsitinib (first compound 0.01 µM); 1.03 with Crizotinib + Linsitinib (first compound 0.03162 µM). Also, the relative viability with Crizotinib + Linsitinib (first compound 0.1 µM) was determined as 1; with Crizotinib + Linsitinib (first compound 0.3162 µM), 0.926; with Crizotinib + Linsitinib (first compound 1 µM) it was 0.836; with Carfilzomib (0.001 µM), 1.02; in the assay with Carfilzomib (0.003162 µM), 1.03; with Carfilzomib (0.01 µM) it was 0.962. Also, the relative viability is 0.547 with Carfilzomib (0.03162 µM) and 0.323 in the assay with Carfilzomib (0.1 µM).
As for NCI-H2023, the relative viability with Crizotinib + Luminespib (first compound 0.01 µM) is 0.714; with Crizotinib + Luminespib (first compound 0.03162 µM), 0.754; with Crizotinib + Luminespib (first compound 0.1 µM) it was 0.61; with Crizotinib + Luminespib (first compound 0.3162 µM) it was 0.58; with Crizotinib + Luminespib (first compound 1 µM), 0.592; in the assay with Crizotinib + Linsitinib (first compound 0.01 µM) it was 0.734. Further, the relative viability with Crizotinib + Linsitinib (first compound 0.03162 µM) stood at 0.592; with Crizotinib + Linsitinib (first compound 0.1 µM), 0.6; with Crizotinib + Linsitinib (first compound 0.3162 µM), 0.486; with Crizotinib + Linsitinib (first compound 1 µM), 0.515; in the assay with Carfilzomib (0.001 µM), 1.01; in the assay with Carfilzomib (0.003162 µM), 0.965. Further, the relative viability with Carfilzomib (0.01 µM) amounted to 0.944; with Carfilzomib (0.03162 µM), 0.436; with Carfilzomib (0.1 µM), 0.0808.

The values are drawn from the supplement of paper PMC10307832.
